Results: patent publication US4673747A, “Aminoalkylphenoxy derivatives” (Ikeda Mohando Co., Ltd., priority 1984, dated 1987)

Assays:
Histamine H2-Receptor = biological target: T1, Histamine H2-Receptor (Cavia porcellus, UniProt P47747); set-up: species or system guinea pig (male Hartley); conditions: isolated guinea pig atrium; negative logarithm of molar concentration; heart beats, histamine dose-response; read-out: Antagonistic Action against Histamine H2-Receptor (pA2) Determined by Using Atrium isolated from Guinea Pig (converted)
T1 construct: from tissue; host or cells: isolated atrium of male Hartley guinea pig
T1 sequence (P47747 whole entry): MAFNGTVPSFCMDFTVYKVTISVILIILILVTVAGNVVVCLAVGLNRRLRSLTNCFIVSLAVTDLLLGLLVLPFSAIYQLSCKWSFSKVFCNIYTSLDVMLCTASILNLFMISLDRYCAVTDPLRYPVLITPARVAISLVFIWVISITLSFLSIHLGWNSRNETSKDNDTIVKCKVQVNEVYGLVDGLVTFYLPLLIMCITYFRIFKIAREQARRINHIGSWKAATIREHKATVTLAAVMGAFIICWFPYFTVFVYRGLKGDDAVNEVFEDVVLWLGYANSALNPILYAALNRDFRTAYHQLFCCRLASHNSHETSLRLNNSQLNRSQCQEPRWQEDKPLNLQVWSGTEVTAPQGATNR
Method: A male Hartley guinea pig having a body weight of about 400 g was killed by cervical dislocation, and the artrium thereof was isolated and was suspended in an organ bath containing 50 ml of a modified Ringer solution and subjected to a tension of 1 g. The number of heart beats under such condition was recorded using a polygraph.
Initially, from 1×10^-7 mol to 3×10^-4 mol of histamine was allowed to act accumulatively to depict the curve of the dosage-reaction relationship. Likewise, the curve of the dosage of histamine-reaction relationship was depicted in the presence of 5×10^-7 mol to 1×10^-6 mol of the test sample which was injected 3 minutes before. The negative logarithm (pA2) of the molar concentration of the test sample required for moving the curve obtained by single administration of histamine parallel to the right side by a two-times concentration was calculated.

[1] = system: Gastric acid secretion induced by histamine; assay: Inhibition effect on gastric acid secretion induced by histamine in pylorus ligated rat (subcutaneous); format: in vivo, rat (male Wistar); conditions: histamine 3 mg/kg SC, average of five runs, * p<0.05, ** p<0.01 vs control group, read-out: Secretion of Gastric Acid in Rat, Inhibition Rate (%); for inhibition in vivo at 0.2 mg/kg: 0.2 mg/kg SC
Method: A male Wistar rat having a body weight of about 160 g and which had not fed for 24 hours was anesthetized by an intraperitonea dose of 1.2 g/kg of uretane. After ligating of pylorus and esophagus, the gaster anterior was incised and fitted with a double polyethylene cannula. The wall of the stomach was rinsed with 5 ml of saline at 30 minute intervals, and the quantities of gastric acid contained in each rinsing solution were measured by titration.
The basal acid secretion was initially measured three times, and then 0.2 mg/kg or 0.5 mg/kg of each of the compounds of this invention was administered subcutaneously and 3 mg/kg of histamine was administered subcutaneously after the lapse of an additional 30 minutes.
The quantity of gastric acid secreated after the operation was measured continuously for 3 hours. Within that measurement interval, three time points at which the increase in acid secretion reached a maximum level were selected, and the average quantity of gastric acid secreted at those time points was taken as the increase in acid secretion, which was compared with the increase in acid secretion of the control group to calculate the percent inhibition for secretion of gastric acid. [formula] (The result was shown as the average value of five runs.)

[2] = system: Gastric acid secretion induced by histamine; assay: Inhibitory effect of intraduodenally administered compounds on gastric acid secretion induced by histamine in rat; format: in vivo, rat (male Wistar); conditions: intraduodenal, rat; for ED50: 0.5 h, 30 minutes before SC histamine, read-out: Median effective dose (ED50), Gastric Acid Secretion; for Efficacy Ratio relative to Cimetidine (Cimetidine = 1): from ED50; for ED50 value: times as effective as Cimetidine (activity ratio): text discussing Table 2

Kb (Histamine H2-Receptor) [nM] | SMILES | inhibition in vivo at 0.2 mg/kg [1] [%] | ED50 [2] [mg/kg] | Efficacy Ratio relative to Cimetidine (Cimetidine = 1) [2] | ED50 value: times as effective as Cimetidine (activity ratio) [2] [times] | inhibition in vivo at 0.5 mg/kg ([1]; 0.5 mg/kg SC) [%]
316 | CNc1n[s+]([O-])nc1NC/C=C\COc1cccc(CN(C)C)c1 (stereo not drawn) [Ex. 22, 3-<4-(3-dimethylaminomethylphenoxy)-cis-2-butenylamino>-4-methylamino-1,2,5-thiadiazole-1-oxide] | 88 | 0.62 | 11.6 | – | –
204 | Nc1nnc(NC/C=C/COc2cccc(CN3CCCCC3)c2)s1 [Ex. 25, 2-amino-5-[4-<3-(1-piperidinomethyl)phenoxy>-trans-2-butenylamino]-1,3,4-thiadiazole] | 77 | – | – | – | –
9550 | CNc1nnc(NC/C=C/COc2cccc(CN3CCCCC3)c2)s1 [Ex. 26, 2-methylamino-5-[4-<3-(1-piperidinomethyl)-phenoxy>-trans-2-butenylamino]-1,3,4-thiadiazole] | 45 | – | – | – | –
490 | Nc1nnc(NC/C=C\COc2cccc(CN3CCCCC3)c2)s1 [Ex. 27, 2-amino-5-[4-<3-(1-piperidinomethyl)-phenoxy>-cis-2-butenylamino]-1,3,4-thiadiazole] | 87 | 0.45 | 16.0 | – | –
4680 | CNc1nnc(NC/C=C\COc2cccc(CN3CCCCC3)c2)s1 [Ex. 28, 2-methylamino-5-[4-<3-(1-piperidinomethyl)-phenoxy>-cis-2-butenylamino]-1,3,4-thiadiazole] | 75 | 0.62 | 11.6 | – | –
316 | Nc1nnc(NC/C=C\COc2cccc(CN3CCCC3)c2)s1 [Ex. 29, 2-amino-5-[4-<3-(1-pyrrolidinomethyl)-phenoxy>-cis-2-butenylamino]-1,3,4-thadiazole] | 36 | – | – | – | –
550 | CNc1nnc(NC/C=C\COc2cccc(CN3CCCC3)c2)s1 [Ex. 30, 2-methylamino-5-[4-<3-(1-pyrrolidinomethyl)-phenoxy>-cis-2-butenylamino]-1,3,4-thiadiazole] | 17 | – | – | – | –
166 | CC1CCCCN1Cc1cccc(OC/C=C\CNc2c(N)c(=O)c2=O)c1 (stereo not drawn) [Ex. 33, 1-amino-2-[4-{3-<1-(2-methylpiperidino)-methyl>phenoxy}-cis-2-butenylamino]-1-cyclobutene-3,4-dione] | 70 | 0.4 | 18.0 | – | –
70.8 | CC1CCCN(Cc2cccc(OC/C=C\CNc3c(N)c(=O)c3=O)c2)C1 (stereo not drawn) [Ex. 34, 1-amino-2-[4-{3-<1-(3-methylpiperidino)methyl>phenoxy}-cis-2-butenylamino]-1-cyclobutene-3,4-dione] | 100 | 0.17 | 42.1 | – | –
263 | CC1CCN(Cc2cccc(OC/C=C\CNc3c(N)c(=O)c3=O)c2)CC1 [Ex. 35, 1-amino-2-[4-{3-<1-(4-methylpiperidino)methyl>phenoxy}-cis-2-butenylamino]-1-cyclobutene-3,4-dione] | 98 | 0.38 | 18.9 | – | –
646 | O=c1c(NC/C=C\COc2cccc(CN3CCCCC3)c2)c(NCc2cccnc2)c1=O [Ex. 37, 1-(3-pyridylmethylamino)-2-[4-<3-(1-piperidinomethyl)phenoxy>-cis-2-butenylamino]-1-cyclobutene-3,4-dione] | 90 | 0.074 | 97.3 | – | –

The next lines start with the compound.

SMILES | Kb (Histamine H2-Receptor) [nM] | inhibition in vivo at 0.2 mg/kg [1] [%] | ED50 [2] [mg/kg] | Efficacy Ratio relative to Cimetidine (Cimetidine = 1) [2] | ED50 value: times as effective as Cimetidine (activity ratio) [2] [times] | inhibition in vivo at 0.5 mg/kg ([1]; 0.5 mg/kg SC) [%]
C#CCNc1c(NC/C=C\COc2cccc(CN3CCCCC3)c2)c(=O)c1=O [Ex. 4, 1-(2-propagylamino)-2-[4-<3-(1-piperidinomethyl)phenoxy>-cis-2-butenylamino]-1-cyclobuten-3,4-dione] | 776 | 66 | – | – | – | –
Nc1c(NC/C=C/COc2cccc(CN3CCCCC3)c2)c(=O)c1=O [Ex. 6, 1-amino-2-[4-<3-(1-piperidinomethyl)phenoxy>-trans-2-butenylamino]-1-cyclobuten-3,4-dione] | 178 | 25 | – | – | – | –
CNc1c(NC/C=C/COc2cccc(CN3CCCCC3)c2)c(=O)c1=O [Ex. 7, 1-methylamino-2-[4-<3-(1-piperidinomethyl)phenoxy>-trans-2-butenylamino]-1-cyclobuten-3,4-dione] | 513 | 28 | – | – | – | –
Nc1c(NC/C=C\COc2cccc(CN3CCCC3)c2)c(=O)c1=O [Ex. 8, 1-amino-2-[4-<3-(1-pyrrolidinomethyl)phenoxy>-cis-2-butenylamino]-1-cyclobuten-3,4-dione] | 151 | 88 | 0.07 | 10.3 | – | –
Nc1n[nH]c(=O)nc1NC/C=C/COc1cccc(CN2CCCCC2)c1 [Ex. 11, 6-amino-5-[4-<3-(1-piperidinomethyl)phenoxy>-trans-2-butenylamino]-1,2,4-triazin-3-one] | 661 | 88 | 0.44 | 16.4 | – | –
CNc1nn(C)c(=O)nc1NC/C=C/COc1cccc(CN2CCCCC2)c1 [Ex. 12, 2-methyl-6-methylamino-5-[4-<3-(1-piperidinomethyl)phenoxy>-trans-2-butenylamino]-1,2,4-triazin-3-one] | 1510 | 44 | – | – | – | –
Cn1c(NC/C=C/COc2cccc(CN3CCCCC3)c2)cc(N)nc1=O [Ex. 14, 1-methyl-4-amino-6-[4-<3-(1-piperidinomethyl)phenoxy>-trans-2-butenylamino]-(1H)-pyrimidin-2-one] | 7080 | -9 | – | – | – | –
Nc1n[s+]([O-])nc1NC/C=C\COc1cccc(CN2CCCCC2)c1 (stereo not drawn) [Ex. 15] | 437 | – | 0.066 | 109.1 | ~110 | 98
Nc1n[s+]([O-])nc1NC/C=C\COc1cccc(CN2CCCC2)c1 (stereo not drawn) [Ex. 17, 3-amino-4-[4-<3-(1-pyrrolidinomethyl)phenoxy>-cis-2-butenylamino]-1,2,5-thiadiazole-1-oxide] | 97.7 | 86 | 0.82 | 8.8 | – | –
CC(C)Nc1n[s+]([O-])nc1NC/C=C\COc1cccc(CN2CCCCC2)c1 (stereo not drawn) [Ex. 19, 3-isopropylamino-4-[4-<3-(1-piperidinomethyl)phenoxy>-cis-2-butenylamino]-1,2,5-thiadiazole-1-oxide] | 2400 | 82 | 0.88 | 8.2 | – | –
CCCNc1n[s+]([O-])nc1NC/C=C\COc1cccc(CN2CCCCC2)c1 (stereo not drawn) [Ex. 20, 3-n-propylamino-4-[4-<3-(1-piperidinomethyl)phenoxy>-cis-2-butenylamino]-1,2,5-thiadiazol-1-oxide] | 389 | 88 | 0.58 | 9.0 | – | –
CN(C)Cc1cccc(OC/C=C\CNc2n[s+]([O-])nc2N)c1 (stereo not drawn) [Ex. 21, 3-<4-(3-dimethylaminomethylphenoxy)-cis-2-butenylamino>-4-amino-1,2,5-thiadiazole-1-oxide] | 229 | 99 | 2 | 3.6 | – | –
NC1=NS(=O)(=O)N=C1NC/C=C\COc1cccc(CN2CCCCC2)c1 [Reference Ex. 1, 3-amino-4-[4-<3-(1-piperidinomethyl)phenoxy>-cis-2-butenylamino]-1,2,5-thiadiazole-1,1-dioxide, reference compound] | – | – | 0.2 | 36.0 | 36 | –
CNC1=NS(=O)(=O)N=C1NC/C=C\COc1cccc(CN2CCCCC2)c1 [Reference Ex. 2, 3-methylamino-4-[4-<3-(1-piperidinomethyl)phenoxy>-cis-2-butenylamino]-1,2,5-thiadiazole-1,1-dioxide, reference compound] | – | – | 0.44 | 16.4 | 16 | –
